{"source": "the NIST ThermoML archive (doi:10.1016/j.jct.2016.10.013)", "key": {"[1]": {"experiment": "refractive index (Na D-line) (dimensionless)", "details": "293.15 K; 101.33 kPa; Liquid; Standard Abbe refractometry"}, "[2]": {"experiment": "activity coefficient (dimensionless); of the first substance listed, at infinite dilution; xn = mol fraction of the nth substance listed", "details": "101.33 kPa, Liquid, Chromatography, x1 = 0"}, "[3]": {"details": "288.15 K; 101.33 kPa; Liquid; Vibrating tube method"}}, "note": "± gives the expanded uncertainty stated by the source."}
{"smiles": "OCCO", "note": "[1,2-ethanediol]", "values": [{"measurement": "refractive index", "setting": "[1]", "result": "1.4319 ± 0.0004"}]}
{"smiles": "C=CCCCCC", "note": "[1-heptene] + OCCO", "values": [{"measurement": "activity coefficient", "setting": "[2]; 303.15 K", "result": "570 ± 26"}, {"measurement": "activity coefficient", "setting": "[2]; 313.15 K", "result": "503 ± 23"}, {"measurement": "activity coefficient", "setting": "[2]; 323.15 K", "result": "452 ± 20"}]}
{"smiles": "C=CCCCCC", "note": "[1-heptene] + OCCOCCO", "values": [{"measurement": "activity coefficient", "setting": "[2]; 304.15 K", "result": "84 ± 3.8"}, {"measurement": "activity coefficient", "setting": "[2]; 313.15 K", "result": "77.8 ± 3.5"}, {"measurement": "activity coefficient", "setting": "[2]; 323.15 K", "result": "73.4 ± 3.3"}]}
{"smiles": "C=CCCCCCCC", "note": "[1-nonene] + OCCO", "values": [{"measurement": "activity coefficient", "setting": "[2]; 303.15 K", "result": "1610 ± 73"}, {"measurement": "activity coefficient", "setting": "[2]; 313.15 K", "result": "1300 ± 59"}, {"measurement": "activity coefficient", "setting": "[2]; 323.15 K", "result": "1170 ± 53"}]}
{"smiles": "C=CCCCCCCC", "note": "[1-nonene] + OCCOCCO", "values": [{"measurement": "activity coefficient", "setting": "[2]; 304.15 K", "result": "188 ± 8"}, {"measurement": "activity coefficient", "setting": "[2]; 313.15 K", "result": "174 ± 8"}, {"measurement": "activity coefficient", "setting": "[2]; 323.15 K", "result": "159 ± 7"}]}
{"smiles": "C1CCCCC1", "note": "[cyclohexane] + OCCO", "values": [{"measurement": "activity coefficient", "setting": "[2]; 303.15 K", "result": "270 ± 12"}, {"measurement": "activity coefficient", "setting": "[2]; 313.15 K", "result": "238 ± 11"}, {"measurement": "activity coefficient", "setting": "[2]; 323.15 K", "result": "212 ± 10"}]}
{"smiles": "C1CCCCC1", "note": "[cyclohexane] + OCCOCCO", "values": [{"measurement": "activity coefficient", "setting": "[2]; 304.15 K", "result": "50.6 ± 2.3"}, {"measurement": "activity coefficient", "setting": "[2]; 313.15 K", "result": "46.7 ± 2.1"}, {"measurement": "activity coefficient", "setting": "[2]; 323.15 K", "result": "43.5 ± 1.9"}]}
{"smiles": "C1CCCC1", "note": "[cyclopentane] + OCCO", "values": [{"measurement": "activity coefficient", "setting": "[2]; 303.15 K", "result": "163 ± 7"}, {"measurement": "activity coefficient", "setting": "[2]; 313.15 K", "result": "149 ± 7"}, {"measurement": "activity coefficient", "setting": "[2]; 323.15 K", "result": "133 ± 6"}]}
{"smiles": "C1CCCC1", "note": "[cyclopentane] + OCCOCCO", "values": [{"measurement": "activity coefficient", "setting": "[2]; 304.15 K", "result": "33.8 ± 1.5"}, {"measurement": "activity coefficient", "setting": "[2]; 313.15 K", "result": "31.6 ± 1.4"}, {"measurement": "activity coefficient", "setting": "[2]; 323.15 K", "result": "30.1 ± 1.3"}]}
{"smiles": "OCCOCCO", "note": "[diethylene glycol]", "values": [{"measurement": "mass density", "setting": "[3]", "result": "1120.3 ± 2", "unit": "kg/m3"}, {"measurement": "refractive index", "setting": "[1]", "result": "1.4472 ± 0.0004"}]}
{"smiles": "CCCCCCC", "note": "[heptane] + OCCO", "values": [{"measurement": "activity coefficient", "setting": "[2]; 303.15 K", "result": "1200 ± 54"}, {"measurement": "activity coefficient", "setting": "[2]; 313.15 K", "result": "1030 ± 47"}, {"measurement": "activity coefficient", "setting": "[2]; 323.15 K", "result": "860 ± 39"}]}
{"smiles": "CCCCCCC", "note": "[heptane] + OCCOCCO", "values": [{"measurement": "activity coefficient", "setting": "[2]; 304.15 K", "result": "174 ± 8"}, {"measurement": "activity coefficient", "setting": "[2]; 313.15 K", "result": "151 ± 7"}, {"measurement": "activity coefficient", "setting": "[2]; 323.15 K", "result": "140 ± 6"}]}
{"smiles": "C=CCCCC", "note": "[hex-1-ene] + OCCO", "values": [{"measurement": "activity coefficient", "setting": "[2]; 303.15 K", "result": "330 ± 15"}, {"measurement": "activity coefficient", "setting": "[2]; 313.15 K", "result": "298 ± 13"}, {"measurement": "activity coefficient", "setting": "[2]; 323.15 K", "result": "272 ± 12"}]}
{"smiles": "C=CCCCC", "note": "[hex-1-ene] + OCCOCCO", "values": [{"measurement": "activity coefficient", "setting": "[2]; 304.15 K", "result": "56.3 ± 2.5"}, {"measurement": "activity coefficient", "setting": "[2]; 313.15 K", "result": "52.4 ± 2.3"}, {"measurement": "activity coefficient", "setting": "[2]; 323.15 K", "result": "50.2 ± 2.2"}]}
{"smiles": "CCCCCC", "note": "[hexane] + OCCO", "values": [{"measurement": "activity coefficient", "setting": "[2]; 303.15 K", "result": "716 ± 32"}, {"measurement": "activity coefficient", "setting": "[2]; 313.15 K", "result": "620 ± 28"}, {"measurement": "activity coefficient", "setting": "[2]; 323.15 K", "result": "543 ± 25"}]}
{"smiles": "CCCCCC", "note": "[hexane] + OCCOCCO", "values": [{"measurement": "activity coefficient", "setting": "[2]; 304.15 K", "result": "112 ± 5"}, {"measurement": "activity coefficient", "setting": "[2]; 313.15 K", "result": "102 ± 5"}, {"measurement": "activity coefficient", "setting": "[2]; 323.15 K", "result": "94.2 ± 4.2"}]}
{"smiles": "CC1CCCCC1", "note": "[methylcyclohexane] + OCCO", "values": [{"measurement": "activity coefficient", "setting": "[2]; 303.15 K", "result": "473 ± 21"}, {"measurement": "activity coefficient", "setting": "[2]; 313.15 K", "result": "407 ± 18"}, {"measurement": "activity coefficient", "setting": "[2]; 323.15 K", "result": "370 ± 17"}]}
{"smiles": "CC1CCCCC1", "note": "[methylcyclohexane] + OCCOCCO", "values": [{"measurement": "activity coefficient", "setting": "[2]; 304.15 K", "result": "77.2 ± 5.3"}, {"measurement": "activity coefficient", "setting": "[2]; 313.15 K", "result": "71.1 ± 4.9"}, {"measurement": "activity coefficient", "setting": "[2]; 323.15 K", "result": "66 ± 4.5"}]}
{"smiles": "CCCCCCCCC", "note": "[nonane] + OCCO", "values": [{"measurement": "activity coefficient", "setting": "[2]; 303.15 K", "result": "2960 ± 140"}, {"measurement": "activity coefficient", "setting": "[2]; 313.15 K", "result": "2320 ± 110"}, {"measurement": "activity coefficient", "setting": "[2]; 323.15 K", "result": "1970 ± 90"}]}
{"smiles": "CCCCCCCCC", "note": "[nonane] + OCCOCCO", "values": [{"measurement": "activity coefficient", "setting": "[2]; 304.15 K", "result": "371 ± 17"}, {"measurement": "activity coefficient", "setting": "[2]; 313.15 K", "result": "329 ± 15"}, {"measurement": "activity coefficient", "setting": "[2]; 323.15 K", "result": "295 ± 13"}]}
{"smiles": "C=CCCCCCC", "note": "[oct-1-ene] + OCCO", "values": [{"measurement": "activity coefficient", "setting": "[2]; 303.15 K", "result": "962 ± 44"}, {"measurement": "activity coefficient", "setting": "[2]; 313.15 K", "result": "819 ± 37"}, {"measurement": "activity coefficient", "setting": "[2]; 323.15 K", "result": "736 ± 33"}]}
{"smiles": "C=CCCCCCC", "note": "[oct-1-ene] + OCCOCCO", "values": [{"measurement": "activity coefficient", "setting": "[2]; 304.15 K", "result": "126 ± 6"}, {"measurement": "activity coefficient", "setting": "[2]; 313.15 K", "result": "116 ± 5"}, {"measurement": "activity coefficient", "setting": "[2]; 323.15 K", "result": "108 ± 5"}]}
{"smiles": "CCCCCCCC", "note": "[octane] + OCCO", "values": [{"measurement": "activity coefficient", "setting": "[2]; 303.15 K", "result": "1960 ± 89"}, {"measurement": "activity coefficient", "setting": "[2]; 313.15 K", "result": "1600 ± 73"}, {"measurement": "activity coefficient", "setting": "[2]; 323.15 K", "result": "1340 ± 61"}]}
{"smiles": "CCCCCCCC", "note": "[octane] + OCCOCCO", "values": [{"measurement": "activity coefficient", "setting": "[2]; 304.15 K", "result": "249 ± 11"}, {"measurement": "activity coefficient", "setting": "[2]; 313.15 K", "result": "223 ± 10"}, {"measurement": "activity coefficient", "setting": "[2]; 323.15 K", "result": "203 ± 9"}]}
{"smiles": "CCCCC", "note": "[pentane] + OCCO", "values": [{"measurement": "activity coefficient", "setting": "[2]; 303.15 K", "result": "436 ± 20"}, {"measurement": "activity coefficient", "setting": "[2]; 313.15 K", "result": "389 ± 18"}, {"measurement": "activity coefficient", "setting": "[2]; 323.15 K", "result": "338 ± 15"}]}
{"smiles": "CCCCC", "note": "[pentane] + OCCOCCO", "values": [{"measurement": "activity coefficient", "setting": "[2]; 304.15 K", "result": "74.1 ± 3.3"}, {"measurement": "activity coefficient", "setting": "[2]; 313.15 K", "result": "70.5 ± 3.1"}, {"measurement": "activity coefficient", "setting": "[2]; 323.15 K", "result": "66.4 ± 3"}]}
